The source of these data is US20030119067A1, “PYK2 related products and methods” (Sugen, Inc., priority 1996, published 2003).

Assay type in all cases: cell-based, rat
One test relates to PYK2/Src complex. Nature of the test: Association of PYK2 with activated Src in PC12 cells (co-immunoprecipitation). Particulars: LPA 2.5 mM or bradykinin 1 mM, 3 min, 37° C. The text has this: We examined the possibility of association between the two protein tyrosine kinases PYK2 and Src in response to LPA or bradykinin stimulation. Lysates from stimulated or unstimulated cells were subjected to immunoprecipitation with antibodies against Src followed by immunoblotting with antibodies against PYK2, against Src or anti-pY416src antibodies that specifically recognize activated Src. Liu et al., Oncogene 8:1119-1126 (1993).
(§1) PC12 cells were left untreated (−) or stimulated with LPA (2.5 mM) or bradykinin (1 mM) for 3 min at 37° C. Src was immunoprecipitated and immunoblotted with antibodies against Src, anti-pY416^src antibodies or antibodies against PYK2.

The next test relates to EGF receptor. As to the kind of experiment: Activation of EGF receptor in PC12 cells. From the text:
(§2) Sadoshima & Izumo, EMBO J. 15:775-787 (1996); Wan et al., Nature 380:541-544 (1996). The EGF-receptor and erbB2 were also implicated in MAP kinase activation induced by LPA and other agonists of G-protein coupled receptors. Daub et al., Nature 379:557-564 (1996). We have tested whether LPA and bradykinin can activate Src and the EGF receptor in PC12 cells.

The next test has as its system Src. As to the kind of experiment: Src kinase activity in PC12 cells. As to conditions: PC12 cells stimulated with LPA or bradykinin. As to the method: as §2, §1
A further test has as its system PYK2. Nature of the test: Tyrosine phosphorylation of PYK2 in PC12 cells (immunoprecipitation, anti-phosphotyrosine immunoblot). Particulars: PC12 cells, 37° C.

Regarding lysophosphatidic acid [LPA], the “complex formation of PYK2 with activated Src” value in the test with PYK2/Src complex is recorded as “forms a complex with activated Src”. Moreover, in the test with EGF receptor, the “activation of EGF receptor” value was “unable to detect”. Moreover, the “increase in Src kinase activity” value with Src was “approximately three to four”. In addition, the “tyrosine phosphorylation of PYK2” value with PYK2 (LPA 2.5 mM or bradykinin 1 mM, 3 min) is “rapid tyrosine phosphorylation of PYK2”. Besides, the “increase in the phosphorylation state of PYK2 relative to unstimulated cells” value with PYK2 (LPA 2.5 mM, bradykinin 1 mM 3 min, PMA 1 mM 10 min) is 4 fold.
